Legend:
KHYG-1 (IL-2 2.5 ng/mL) [1] = experiment: drug sensitivity score (DSS) (DSS units); higher = more sensitive; extreme values may be limits of the assay; conditions: 72 h
[2] = tested on: normal primary NK cells, pool 1 (3 donors), resting (IL-2 0 ng/mL); experiment: as above; conditions: 72 h
NK-YS (IL-2 2.5 ng/mL) [3] = experiment: as above; conditions: 72 h
DERL-7 (IL-2 2.5 ng/mL) [4] = experiment: as above; conditions: 72 h
[5] = tested on: normal primary NK cells, pool 1 (3 donors) (IL-2 2.5 ng/mL); experiment: as above; conditions: 72 h
NKL (IL-2 2.5 ng/mL) [6] = experiment: as above; conditions: 72 h
KAI3 (IL-2 2.5 ng/mL) [7] = experiment: as above; conditions: 72 h
NK-92 (IL-2 2.5 ng/mL) [8] = experiment: as above; conditions: 72 h
SNK-6 (IL-2 2.5 ng/mL) [9] = experiment: as above; conditions: 72 h
YT (IL-2 2.5 ng/mL) [10] = experiment: as above; conditions: 72 h
KHYG-1 (IL-2 2.5 ng/mL) [11] = experiment: percent inhibition of viability; higher = more inhibition; conditions: 72 h
[12] = tested on: normal primary NK cells, pool 1 (3 donors), resting (IL-2 0 ng/mL); experiment: as above; conditions: 72 h
NK-YS (IL-2 2.5 ng/mL) [13] = experiment: as above; conditions: 72 h
DERL-7 (IL-2 2.5 ng/mL) [14] = experiment: as above; conditions: 72 h
[15] = tested on: normal primary NK cells, pool 1 (3 donors) (IL-2 2.5 ng/mL); experiment: as above; conditions: 72 h
NKL (IL-2 2.5 ng/mL) [16] = experiment: as above; conditions: 72 h
KAI3 (IL-2 2.5 ng/mL) [17] = experiment: as above; conditions: 72 h
NK-92 (IL-2 2.5 ng/mL) [18] = experiment: as above; conditions: 72 h
SNK-6 (IL-2 2.5 ng/mL) [19] = experiment: as above; conditions: 72 h
YT (IL-2 2.5 ng/mL) [20] = experiment: as above; conditions: 72 h
IMC-1 (IL-2 20 ng/mL) [21] = experiment: drug sensitivity score (DSS) (DSS units); higher = more sensitive; extreme values may be limits of the assay; conditions: 72 h
[22] = tested on: normal primary NK cells, pool 3 (3 donors) (IL-2 2.5 ng/mL); experiment: as above; conditions: 72 h
[23] = tested on: normal primary NK cells, pool 2 (3 donors) (IL-2 2.5 ng/mL); experiment: as above; conditions: 72 h
[24] = tested on: normal NK cells expanded with K562-aAPC; experiment: as above; conditions: 72 h; IL-2 2.5 ng/mL
Description: (§1)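 Drug sensitivity and resistance testing on K562-aAPC-expanded normal NK cells: 5 concentrations (10-fold steps over a 10,000-fold range), 72 h at 37 °C, viability by CellTiter-Glo normalised to DMSO and benzethonium chloride controls; DSS from the fitted curve.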

[25] = tested on: normal NK cells expanded with K562-aAPC; experiment: percent inhibition of viability; higher = more inhibition; conditions: 72 h, IL-2 2.5 ng/mL
Description: as §1

IMC-1 (IL-2 20 ng/mL) [26] = experiment: as above; conditions: 72 h
[27] = tested on: normal primary NK cells, pool 3 (3 donors) (IL-2 2.5 ng/mL); experiment: as above; conditions: 72 h
[28] = tested on: normal primary NK cells, pool 2 (3 donors) (IL-2 2.5 ng/mL); experiment: as above; conditions: 72 h

CC(C)NC[C@@H](C(=O)N1CCN(c2ncnc3c2[C@H](C)C[C@H]3O)CC1)c1ccc(Cl)cc1 [GDC-0068] (max concentration tested 10000 nM)
Conditions	drug sensitivity score
DERL-7 (IL-2 2.5 ng/mL) [4]	9.75
KAI3 (IL-2 2.5 ng/mL) [7]	0
KHYG-1 (IL-2 2.5 ng/mL) [1]	1.8
NK-92 (IL-2 2.5 ng/mL) [8]	1.5
NK-YS (IL-2 2.5 ng/mL) [3]	1.05
NKL (IL-2 2.5 ng/mL) [6]	0.78
SNK-6 (IL-2 2.5 ng/mL) [9]	0.68
YT (IL-2 2.5 ng/mL) [10]	0
[2]	3.04
[5]	1.57

percent inhibition of viability [%]
Conditions	DERL-7 (IL-2 2.5 ng/mL) [14]	KAI3 (IL-2 2.5 ng/mL) [17]	KHYG-1 (IL-2 2.5 ng/mL) [11]	NK-92 (IL-2 2.5 ng/mL) [18]	NK-YS (IL-2 2.5 ng/mL) [13]	NKL (IL-2 2.5 ng/mL) [16]	SNK-6 (IL-2 2.5 ng/mL) [19]	YT (IL-2 2.5 ng/mL) [20]	[12]	[15]
1 nM	-2.5	12.9	7.35	1.45	7.4	2.85	-1.73	10.5	10.8	5.46
10 nM	3.47	16.7	8.11	-2.57	4.06	7.83	-7.94	10.4	1.35	-2.99
100 nM	-3.9	21.2	10.8	7.49	8.96	4.25	17.9	9.38	6.46	2.75
1000 nM	40.2	10.2	8.62	1.85	7.83	3.13	-5.92	5.43	4.26	4.21
10000 nM	83.9	27.1	22.8	29	20.6	17.5	24.9	17.3	45.6	24.8

CC(C)NC[C@@H](C(=O)N1CCN(c2ncnc3c2[C@H](C)C[C@H]3O)CC1)c1ccc(Cl)cc1 [Ipatasertib] (max concentration tested 10000 nM)
Conditions	drug sensitivity score
IMC-1 (IL-2 20 ng/mL) [21]	0
[22]	2.08
[23]	3.09
[24]	3.79

percent inhibition of viability [%]
Conditions	1 nM	10 nM	100 nM	1000 nM	10000 nM
IMC-1 (IL-2 20 ng/mL) [26]	0.54	2.26	1.36	0.96	9.26
[25]	4.44	5.94	6.06	17.9	39.6
[27]	5.55	1.78	8.02	9.98	29.5
[28]	-8.24	-4.37	0.07	8.84	36

N[C@@H](Cc1ccc(N(CCCl)CCCl)cc1)C(=O)O [Melphalan] (max concentration tested 12500 nM)
Conditions	drug sensitivity score
IMC-1 (IL-2 20 ng/mL) [21]	0
[22]	0
[23]	0
[24]	0

percent inhibition of viability [%]
Conditions	1.25 nM	12.5 nM	125 nM	1250 nM	12500 nM
IMC-1 (IL-2 20 ng/mL) [26]	-3.81	-2.31	-1.39	0.63	0.47
[25]	-1.69	-2.91	-0.58	0.8	6.31
[27]	-7.72	-2.35	-4.09	0.34	3.45
[28]	-5.43	-5.03	-6.41	7.99	1.1

CN(C)C(=N)NC(=N)N [Metformin] (max concentration tested 100000 nM)
Conditions	drug sensitivity score
IMC-1 (IL-2 20 ng/mL) [21]	0
[22]	0
[23]	1.13
[24]	0

percent inhibition of viability [%]
Conditions	10 nM	100 nM	1000 nM	10000 nM	100000 nM
IMC-1 (IL-2 20 ng/mL) [26]	-3.89	-0.13	-3.1	-1.36	5.51
[25]	-6.08	-6.07	-1.23	6.39	2.64
[27]	-3.35	0.87	5.02	0.46	8.34
[28]	-3.45	0.32	10.6	8.75	12.4

CC(C)N(C[C@H]1O[C@@H](n2cnc3c(N)ncnc32)[C@H](O)[C@@H]1O)[C@H]1C[C@@H](CCc2nc3cc(C(C)(C)C)ccc3[nH]2)C1 [Pinometostat] (max concentration tested 1000 nM)
Conditions	drug sensitivity score
IMC-1 (IL-2 20 ng/mL) [21]	0
[22]	0
[23]	0
[24]	0.26

percent inhibition of viability [%]
Conditions	0.1 nM	1 nM	10 nM	100 nM	1000 nM
IMC-1 (IL-2 20 ng/mL) [26]	-9.34	-4.07	-2.87	-4.72	3.86
[25]	-0.7	-1.47	-2.36	3.36	12.5
[27]	-1.26	13	2.22	1.46	-1.92
[28]	-6.45	6.92	6.49	-0.47	0.82
